Measurements: PubChem BioAssay (NCI)
“And” between values parts separate entries of the source, which are not always exact repeats. Equal entries are not always repeated.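 Step 1: Grow cells in 96-well plates. Step 2: Expose to compound for 48 hours at 5 concentrations. Step 3: Interpolate endpoints linearly; if unreached, use highest concentration. GI50 is the concentration that inhibits growth by half. Definition used: TGI = concentration required for complete inhibition of growth.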

Experiments:
Assay in all cases: NCI tumour cell line growth inhibition, 48 h
[1] = system: DLD-1 colon
[2] = system: DMS 114 small cell lung
[3] = system: KM20L2 colon
[4] = system: LXFL 529 NSCLC
[5] = system: M19-MEL melanoma
[6] = system: RXF-631 renal
[7] = system: SNB-78 CNS
[8] = system: MDA-N
[9] = system: P388 leukemia
[10] = system: P388/ADR leukemia
[11] = system: SN12K1 renal
[12] = system: XF 498 CNS

Row | Compound | TGI [1] | TGI [2] | TGI [3] [µM] | TGI [4] [µM] | TGI [5] | TGI [6] [µM] | TGI [7] | TGI [8] [µM] | TGI [12] | further results
1 | CCc1cc(Cc2ccc(C)c(NC(=O)C(=O)C3C(=O)NC(=O)NC3=O)c2CC)cc(C)c1NC(=O)C(=O)C1C(=O)NC(=O)NC1=O | > 100 µM | > 100 µM | > 100 | > 100 | > 100 µM | > 100 | > 100 µM | – | – | –
2 | CC(/C=N/N=C(N)N)=N\N=C(N)N | 2500 µM | 171 µM | 411 | – | – | – | 147 µM | 354 | 12 µM | GI50 [2]: 95.4 µM; GI50 [3]: 47.6 µM; GI50 [8]: 26.8 µM; TGI [9]: 39.8 µM; TGI [10]: 352 µM; TGI [11]: 30.1 µM
3 | O=C1C=Cc2ncccc2C1=O | 34.2 µM | 33.6 µM | > 63.2 | 30.2 | – | 39.5 | > 66.5 µM | – | 39.3 µM | –
4 | N#C/C(=C\c1ccc2[nH]ccc2c1)C(=O)c1ccc(O)c(O)c1 | > 100 µM | > 100 µM | > 100 | > 100 | > 100 µM | – | > 100 µM | > 100 | – | –
5 | [CH3][Sn]1([CH3])[O]CC(COc2cc(Cl)c(Cl)cc2Cl)[O]1 (centres undefined) | > 100 µM | > 100 µM | > 100 | > 100 | – | – | > 100 µM | – | > 100 µM | GI50 [1]: 54.5 µM; GI50 [2]: 50.1 µM; GI50 [3]: > 100 µM; GI50 [4]: 41.2 µM; GI50 [7]: 49.6 µM; GI50 [12]: 68 µM
6 | CC(C)(C)Sc1nnc(SC(C)(C)C)c2c(=O)[nH]nc(SC(C)(C)C)c12 | 22.8 µM | 15.5 µM | 22.1 | 23.1 | 14.8 µM | 20.5 | 25.8 µM | – | 28.7 µM | –
7 | Nc1ccn(C2OC(C(OC3OC(CO)C(O)C(N)C3O)C(O)C(O)C(O)C(O)CO)C(N)C(O)C2O)c(=O)n1 (centres undefined) | – | – | – | – | – | – | – | > 100 | – | –
8 | Cn1nc(-c2ccccc2)c(C(=O)/C=C/c2ccc(Cl)cc2)c(N2CCCC2)c1=O | 10.8 µM | 9.8 µM | 15.1 | 13 | 23.2 µM | 50.5 | – | – | 28.3 µM | –
9 | CC1=CC(=O)NP(=O)(C23CC4CC(CC(C4)C2)C3)N1 (centres undefined) | > 100 µM | – | > 100 | > 100 | > 100 µM | > 100 | > 100 µM | – | > 100 µM | –
10 | S=c1c2ccccc2c(=S)n2n1CC=CC2 | > 100 µM | > 100 µM | > 100 | > 100 | > 100 µM | > 100 | > 100 µM | – | – | –
11 | c1ccc(-c2nnc3nn4c(-c5ccccc5)cnnc4c3c2-c2ccccc2)cc1 | > 100 µM | > 100 µM | > 100 | > 100 | > 100 µM | 66.7 | > 100 µM | – | 57.1 µM | –
12 | CCCCNC1=C(C(=O)OCC)/C(=N/NC(=O)c2ccccc2O)CO1 | > 100 µM | > 100 µM | > 100 | > 100 | > 100 µM | – | > 100 µM | – | > 100 µM | –
13 | Cc1ccc2nc(NC(=O)C(=O)CC(=O)c3cccc4ccccc34)sc2c1 | > 100 µM | – | > 100 | > 100 | > 100 µM | – | > 100 µM | – | > 100 µM | –
14 | O=C(/C=C/C1C(=O)NC(=O)NC1=O)CC(=O)C(=O)Nc1cc(Cl)c(Cl)cc1Cl | > 100 µM | > 100 µM | > 100 | > 100 | > 100 µM | – | > 100 µM | – | > 100 µM | –
15 | CCOC(=O)CC(NC(=O)c1ccc(N=NN(C)C)cc1)C(=O)OCC (centres undefined) | > 100 µM | – | – | > 100 | > 100 µM | – | – | – | – | –
16 | CC(C)[Si](OCC1CC(C#N)OC(C)(C)O1)(C(C)C)C(C)C (centres undefined) | > 100 µM | – | 65.8 | – | 76.9 µM | – | 52.1 µM | – | 37 µM | –
17 | CC(C)N1C(C)[C@@H](c2ccccc2)O[P@]1(=O)CC1=CCCCC1 (some centres undefined) | > 100 µM | > 100 µM | > 100 | > 100 | > 100 µM | – | – | – | > 100 µM | –
18 | CC(N1CCOCC1)C(O)(c1ccccc1)c1ccccn1 (centres undefined) | – | – | – | – | – | – | – | > 100 | – | –
19 | O=c1[nH]cc(C(F)(C(F)(F)F)C(F)(F)F)c(=O)[nH]1 | > 100 µM | > 100 µM | > 100 | > 100 | > 100 µM | > 100 | > 100 µM | – | > 100 µM | –
20 | O=S1(=O)c2ccccc2N=C(c2ccccc2Cl)CC1c1ccc(F)cc1 (centres undefined) | 28.6 µM | 41.1 µM | 37.4 | 31.6 | 31.5 µM | – | 40.3 µM | – | 29 µM | –
21 | O=S(=O)(O)SCCNCCCCCC1CCCCC1 | – | – | – | – | – | – | – | 26.1 | – | –

Row | Compound | TGI [1] | TGI [2] | TGI [3] [µM] | TGI [4] [µM] | TGI [5] | TGI [6] [µM] | TGI [7] | TGI [8] [µM] | TGI [12] | further results
22 | CCCCCCCCCCCCCCCCCC(=O)NCC(COP(=O)(O)O)OCC (centres undefined) | > 100 µM | > 100 µM | – | > 100 | > 100 µM | 77.2 | 83.3 µM | – | > 100 µM | –
23 | COc1ccc2c(c1)c1c3n2CCNN=C3CCC1 | > 100 µM | > 100 µM | > 100 | > 100 | > 100 µM | > 100 | > 94.3 µM | – | > 100 µM | –
24 | c1ccc(-c2ccnc3c2ccc2c(-c4ccccc4)ccnc23)cc1 | 15.3 µM | 12.7 µM | 16.5 | 11.5 | 5.14 µM | 6.19 | 18 µM | – | – | –
25 | Cc1noc(/N=C2\C=C(Nc3onc(C)c3C)C(=O)c3ccccc32)c1C | > 100 µM | > 100 µM | > 100 | > 100 | 17.1 µM | > 100 | > 100 µM | – | > 100 µM | –
26 | COC(=O)C(=O)C(C(=O)C(=O)Nc1cc(Cl)c(Cl)cc1Cl)c1nc2ccc([N+](=O)[O-])cc2[nH]c1=O (centres undefined) | – | > 100 µM | > 100 | > 100 | > 100 µM | > 100 | > 100 µM | – | > 100 µM | –
27 | COC(=O)/C(=N\Nc1nnc(C)n1N)C(C#N)c1ccccc1 (centres undefined) | > 100 µM | 42.8 µM | > 100 | > 100 | 32.8 µM | > 100 | > 100 µM | 44.4 | > 100 µM | –
28 | Cn1cc(NC(=O)Nc2cc(C(=O)Nc3cc(C(=O)Nc4cc(S(=O)(=O)O)c5cc(S(=O)(=O)O)cc(S(=O)(=O)O)c5c4)n(C)c3)n(C)c2)cc1C(=O)Nc1cc(C(=O)Nc2cc(S(=O)(=O)O)c3cc(S(=O)(=O)O)cc(S(=O)(=O)O)c3c2)n(C)c1 | – | – | – | – | – | – | – | > 100 | – | –
29 | Cc1cc(Br)cc(C)c1NC(=O)C(=O)Nn1c(=S)[nH]c2ccccc2c1=O | – | – | – | – | – | – | – | > 100 | – | –
30 | COC(=O)C(C(=O)C(N)=O)c1csc(-n2nc(-c3ccccc3)cc2-c2ccccc2)n1 (centres undefined) | > 31.6 µM | 25.2 µM | > 31.6 | > 31.6 | > 31.6 µM | – | > 31.6 µM | – | > 31.6 µM | –
31 | CCCOC(=O)C1C2CCC(O2)C1C(=O)O (centres undefined) | – | – | – | – | – | – | – | > 100 | – | –
32 | C#CCOCn1cnc2ncnc(N)c21 | > 100 µM | > 100 µM | – | – | > 100 µM | – | > 100 µM | – | > 100 µM | –
33 | NNC(=O)C(O)C(O)C(=O)NN (centres undefined) | – | – | – | – | – | – | – | > 100 | – | –
34 | CNC(c1ccncc1)C(NC)c1ccncc1 (centres undefined) | – | – | – | – | – | – | – | > 100 | – | –
35 | C/C(CC(=O)Nc1cccc([N+](=O)[O-])c1)=N\NC(=O)CC#N | > 100 µM | > 100 µM | > 100 | > 100 | – | > 100 | > 100 µM | – | > 100 µM | –
36 | CC(=O)OC(=O)O/C=C\CCl | > 100 µM | > 100 µM | > 100 | > 100 | > 100 µM | > 100 | > 100 µM | – | – | –
37 | Cc1ccc(S(=O)(=O)NC(CO)C(=O)O)cc1 (centres undefined) | – | – | – | – | – | – | – | > 100 | – | –
38 | CC(=O)[C-](C(C)=O)c1ccccc1.CC(=O)[C-](C(C)=O)c1ccccc1.CC(=O)[C-](C(C)=O)c1ccccc1.[Cl-].[Zr+4] | – | – | > 100 | – | – | – | – | – | – | GI50 [3]: > 100 µM
39 | Cc1c2ccncc2c(C)c2c1[nH]c1ccc(Cl)cc12 | 8.14 µM and 4.89 µM | 6.1 µM and 13 µM | 9.55 | 14 | 7.93 µM and 8.98 µM | – | 22.5 µM and 20.4 µM | – | 9.43 µM and 2.71 µM | GI50 [1]: 1.67 µM; GI50 [2]: 2.6 µM; GI50 [3]: 3.06 µM; TGI [9]: 3.91 µM; TGI [10]: 10.2 µM; TGI [11]: 7.81 µM; GI50 [7]: 3.07 µM; GI50 [12]: 1.41 µM
40 | CC(=O)NC(CCCN(Cc1ccccc1)C(=O)N(C)N=O)C(=O)NCc1ccccc1 (centres undefined) | > 100 µM | > 100 µM | > 100 | > 100 | > 100 µM | > 100 | > 100 µM | – | > 100 µM | –
41 | O=C(O)CCc1nc(-c2ccccc2-n2cccc2)no1 | – | – | – | – | – | – | – | > 100 | – | –
42 | CC(=O)c1c2c(cc3c1CC1(C3)Cc3cc4c(c(C(=O)O)c3C1)CCC4)CCC2 (centres undefined) | > 100 µM | > 100 µM | – | > 100 | > 100 µM | – | > 100 µM | – | > 100 µM | –
